From ChEMBL document CHEMBL1153659, “Target directed enediyne prodrugs: hER and AhR degradation by a synthetic oxo-enediyne” (1996)

Test system: T47D
Test: Compound was tested for growth inhibition against T-47D-Y cells at 10e-4 M
Type: functional
Conditions: Homo sapiens

## C1#CCO[C@H]2CCCC[C@@H]2C#C/C=C\1
  inhibition at 100 µM: 83%
